According to ChEMBL document CHEMBL1201862, “PubChem BioAssay data set” (2004):
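Grown in 96-well plates, cells were treated for 48 hours with each compound at five concentrations. Insufficient inhibition: endpoint recorded as highest concentration tested. Here, GI50 denotes the concentration required for 50% inhibition of growth.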 Activity calls are given as the source filed them. No stated cut-off is given here; in the data, active = GI50 up to about 1.1 µM and inactive = higher.

What was measured:
Test in all cases: inhibition of tumour cell growth, NCI panel, 48 h
ACHN = tested on: ACHN
NCI-H226 = tested on: NCI-H226
OVCAR-3 = tested on: OVCAR-3
KM12 = tested on: KM12
OVCAR-5 = tested on: OVCAR-5
HL-60 = tested on: HL-60
OVCAR-8 = tested on: OVCAR-8
K562 = tested on: K562
SK-MEL-2 = tested on: SK-MEL-2
BT-549 = tested on: BT-549
IGROV-1 = tested on: IGROV-1
MCF7 = tested on: MCF7
HOP-92 = tested on: HOP-92
HCT-15 = tested on: HCT-15
PC-3 = tested on: PC-3
MDA-N = tested on: MDA-N
MDA-MB-435 = tested on: MDA-MB-435
A549 = tested on: A549
HCC 2998 = tested on: HCC 2998

| Structure (SMILES) | GI50 (ACHN) | GI50 (NCI-H226) | GI50 (OVCAR-3) | GI50 (KM12) | GI50 (OVCAR-5) | GI50 (HL-60) | GI50 (OVCAR-8) | GI50 (K562) | GI50 (SK-MEL-2) | GI50 (BT-549) | GI50 (IGROV-1) | GI50 (MCF7) | GI50 (HOP-92) | GI50 (HCT-15) [µM] | GI50 (PC-3) | GI50 (MDA-N) | GI50 (MDA-MB-435) | GI50 (A549) | GI50 (HCC 2998) |
| --- | --- | --- | --- | --- | --- | --- | --- | --- | --- | --- | --- | --- | --- | --- | --- | --- | --- | --- | --- |
| CCN(CC)CCN1C=CC(C)C(C(=O)O)C1C(N)=O (centres undefined) | > 100 µM (inactive) | > 100 µM (inactive) | > 100 µM (inactive) | > 100 µM (inactive) | > 100 µM (inactive) | > 100 µM (inactive) | > 100 µM (inactive) | > 100 µM (inactive) | > 100 µM (inactive) | > 100 µM (inactive) | > 100 µM (inactive) | > 100 µM (inactive) | > 100 µM (inactive) | > 100 | > 100 µM (inactive) | > 100 µM (inactive) | > 100 µM (inactive) | > 100 µM (inactive) | > 100 µM (inactive) |
| CC(=O)Nc1[nH]c(C#N)nc1C#N | > 100 µM (inactive) | > 100 µM (inactive) | > 100 µM (inactive) | > 100 µM (inactive) | > 100 µM (inactive) | > 100 µM (inactive) | > 100 µM (inactive) | > 100 µM (inactive) | > 100 µM (inactive) | > 100 µM (inactive) | > 100 µM (inactive) | > 100 µM (inactive) | > 100 µM (inactive) | > 100 | > 100 µM (inactive) | > 100 µM (inactive) | > 100 µM (inactive) | > 100 µM (inactive) | > 100 µM (inactive) |
| N#CC1=C(N)N(/N=C/c2ccco2)C(c2ccco2)C1(C#N)C#N (centres undefined) | 15.6 µM (inactive) | 18.6 µM (inactive) | 18.2 µM (inactive) | 15.1 µM (inactive) | 20.3 µM (inactive) | 3.35 µM (inactive) | 19.7 µM (inactive) | 5.7 µM (inactive) | 24.1 µM (inactive) | 17.6 µM (inactive) | 14.6 µM (inactive) | 20.5 µM (inactive) | 16.6 µM (inactive) | 15.3 | 23 µM (inactive) | 18.4 µM (inactive) | 21.3 µM (inactive) | 19.6 µM (inactive) | 19.4 µM (inactive) |
| CC(=O)c1ccccc1NCC(=O)Nn1cnc2ccc(S(=O)(=O)Nc3ccccc3C(C)=O)cc2c1=O | > 100 µM (inactive) | > 100 µM (inactive) | > 100 µM (inactive) | > 100 µM (inactive) | > 100 µM (inactive) | > 100 µM (inactive) | > 100 µM (inactive) | > 100 µM (inactive) | > 100 µM (inactive) | > 100 µM (inactive) | 2.53 µM (inactive) | > 100 µM (inactive) | > 100 µM (inactive) | > 100 | > 100 µM (inactive) | > 100 µM (inactive) | > 100 µM (inactive) | > 100 µM (inactive) | > 100 µM (inactive) |
| OC(c1ccc(-c2ccccc2)cc1)C(F)(F)c1nc2ccccc2o1 (centres undefined) | 56.6 µM (inactive) | > 48.3 µM (inactive) | 35.8 µM (inactive) | 36.8 µM (inactive) | > 100 µM (inactive) | 15.5 µM (inactive) | 34.8 µM (inactive) | 18.2 µM (inactive) | > 100 µM (inactive) | > 96.4 µM (inactive) | 34 µM (inactive) | 25.3 µM (inactive) | 29.9 µM (inactive) | > 100 | 65.9 µM (inactive) | > 100 µM (inactive) | > 86.9 µM (inactive) | 40.4 µM (inactive) | > 100 µM (inactive) |
| CCCCCc1cc2cc3c(c(O)c2c(=O)[nH]1)C1(CCC3)C(=O)c2c(O)c3c(c(O)c2C1=O)C(=O)C(OC)=CC3=O (centres undefined) | 0.552 µM (active) | 1.87 µM (inactive) | 0.499 µM (active) | 1.85 µM (inactive) | 2.02 µM (inactive) | 0.478 µM (active) | 0.714 µM (active) | 0.42 µM (active) | 1.24 µM (inactive) | 0.703 µM (active) | 1.03 µM (active) | 0.317 µM (active) | 0.433 µM (active) | 0.42 | 1.1 µM (active) | 1.41 µM (inactive) | 0.908 µM (active) | 1 µM (active) | 2.05 µM (inactive) |
| CC(=O)O[C@H]1C(=O)[C@@]2(C)[C@H]([C@H](OC(=O)c3ccccc3)[C@]3(O)C[C@H](OC(=O)[C@H](O)[C@@H](NC(=O)c4ccc(N(C)C)cc4)c4ccccc4)C(C)=C1C3(C)C)[C@]1(OC(C)=O)CO[C@@H]1C[C@@H]2O | 0.0718 µM (active) | 0.008 µM (active) | < 0.005 µM (active) | < 0.005 µM (active) | < 0.005 µM (active) | < 0.005 µM (active) | < 0.005 µM (active) | < 0.005 µM (active) | 0.05 µM (active) | 0.0188 µM (active) | 0.00962 µM (active) | < 0.005 µM (active) | > 28.8 µM (inactive) | 0.337 | < 0.005 µM (active) | < 0.005 µM (active) | < 0.005 µM (active) | < 0.005 µM (active) | < 0.005 µM (active) |
| O=C(O)c1ccccc1/N=N/c1c(O)c(S(=O)(=O)O)cc2cc(S(=O)(=O)O)ccc12 | > 100 µM (inactive) | > 100 µM (inactive) | > 100 µM (inactive) | 84.3 µM (inactive) | > 100 µM (inactive) | > 100 µM (inactive) | > 100 µM (inactive) | > 100 µM (inactive) | > 100 µM (inactive) | > 100 µM (inactive) | > 100 µM (inactive) | > 100 µM (inactive) | > 100 µM (inactive) | > 100 | > 100 µM (inactive) | > 100 µM (inactive) | > 100 µM (inactive) | > 100 µM (inactive) | > 100 µM (inactive) |
| COc1c(O)c(OC)c2oc(-c3ccc(O)c(O)c3)c(OC)c(=O)c2c1O | 31.4 µM (inactive) | 27.4 µM (inactive) | 2.85 µM (inactive) | 48.3 µM (inactive) | 38.8 µM (inactive) | 17.7 µM (inactive) | 32.1 µM (inactive) | 18.5 µM (inactive) | 5.42 µM (inactive) | 6.81 µM (inactive) | 10.4 µM (inactive) | 4.1 µM (inactive) | 30.5 µM (inactive) | 11.5 | 38.9 µM (inactive) | 37.3 µM (inactive) | 3.13 µM (inactive) | 35.6 µM (inactive) | 29.3 µM (inactive) |
| C=C1CC(Cn2ccc(=O)[nH]c2=O)(c2ccc(-c3ccccc3)cc2)OC1=O (centres undefined) | 1.78 µM (inactive) | 4.6 µM (inactive) | 1.98 µM (inactive) | 3.61 µM (inactive) | 10 µM (inactive) | 0.154 µM (active) | 2.62 µM (inactive) | 0.208 µM (active) | 2.09 µM (inactive) | 1.86 µM (inactive) | 1.04 µM (active) | 0.916 µM (active) | 1.2 µM (inactive) | 1.65 | 3.2 µM (inactive) | 1.03 µM (active) | 1.69 µM (inactive) | 11.1 µM (inactive) | 2.07 µM (inactive) |
| O=C1Nc2ccccc2/C1=C\c1c(Cl)n(-c2ccccc2)c2ccccc12 | 5.75 µM (inactive) | 1.7 µM (inactive) | 1.92 µM (inactive) | 2.84 µM (inactive) | 3.08 µM (inactive) | 2.77 µM (inactive) | 2.71 µM (inactive) | 2.48 µM (inactive) | 8.69 µM (inactive) | 5.93 µM (inactive) | 2.75 µM (inactive) | 3.44 µM (inactive) | 0.946 µM (active) | 2.49 | 3.78 µM (inactive) | 1.14 µM (inactive) | 0.759 µM (active) | 3.52 µM (inactive) | 3.15 µM (inactive) |
